PubChem BioAssay (NCI)
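GI50 = concentration required for 50% inhibition of growth. Definition used: TGI = concentration required for complete inhibition of growth.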

How the values were obtained:
Experiment in all cases: inhibition of tumour cell growth, NCI panel, 384-well format
[1] = test system: M14 melanoma
[2] = test system: SNB-75 CNS
[3] = test system: T-47D breast
[4] = test system: MOLT-4 leukemia
[5] = test system: IGROV1 ovarian
[6] = test system: SN12C renal
[7] = test system: A498 renal
[8] = test system: MCF7 breast
[9] = test system: SF-268 CNS
[10] = test system: MDA-MB-231 breast
[11] = test system: NCI-H522 lung
[12] = test system: UO-31 renal
[13] = test system: MDA-MB-435 melanoma
[14] = test system: SK-MEL-5 melanoma
[15] = test system: SK-MEL-28 melanoma
[16] = test system: RPMI-8226 leukemia
[17] = test system: A549 NSCLC
[18] = test system: LOX IMVI melanoma
[19] = test system: U251 glioblastoma
[20] = test system: EKVX NSCLC
[21] = test system: HOP-92 NSCLC
[22] = test system: OVCAR-8 ovarian
[23] = test system: 786-0 renal
[24] = test system: HCT-15 colon
[25] = test system: OVCAR-5 ovarian
[26] = test system: HL-60(TB) leukemia
[27] = test system: MDA-MB-468 breast
[28] = test system: KM12 colon
[29] = test system: NCI-H322M lung
[30] = test system: ACHN renal
[31] = test system: OVCAR-3 ovarian
[32] = test system: NCI/ADR-RES ovarian
[33] = test system: SNB-19 CNS
[34] = test system: NCI-H226 lung
[35] = test system: MALME-3M melanoma
[36] = test system: UACC-257 melanoma
[37] = test system: BT-549 breast
[38] = test system: SK-OV-3 ovarian
[39] = test system: DU-145 prostate
[40] = test system: NCI-H460 NSCLC
[41] = test system: HCC-2998 colon
[42] = test system: SW-620 colon
[43] = test system: SF-295 CNS
[44] = test system: HS 578T breast
[45] = test system: PC-3 prostate
[46] = test system: HOP-62 NSCLC
[47] = test system: SR leukemia
[48] = test system: CAKI-1 renal
[49] = test system: UACC-62 melanoma
[50] = test system: HCT-116 colon
[51] = test system: OVCAR-4 ovarian
[52] = test system: CCRF-CEM leukemia
[53] = test system: SF-539 CNS
[54] = test system: RXF 393 renal
[55] = test system: TK-10 renal
[56] = test system: NCI-H23 lung
[57] = test system: COLO 205 colon
[58] = test system: HT29 colon
[59] = test system: K-562 leukemia

In the case of `CN1CC[C@@H](NC(=O)Nc2ccc(C#N)cc2)C[C@@H]1c1nc2ccccc2[nH]1`, the GI50 [1] is reported as greater than 100 µM, the TGI [1] is reported as greater than 100 µM and the GI50 [2] is reported as greater than 58.6 µM. For the same molecule, the TGI [2] was greater than 95.9 µM, the GI50 [3] was 37.9 µM and the TGI [3] was greater than 100 µM. It also gave a GI50 [4] of 18.2 µM, a TGI [4] of 36.4 µM and a GI50 [5] of 75.1 µM. It also gave a TGI [5] greater than 100 µM, a GI50 [6] greater than 100 µM and a TGI [6] greater than 100 µM. It also gave a GI50 [7] greater than 85.2 µM, a TGI [7] greater than 100 µM and a GI50 [8] greater than 72.1 µM. It also gave a TGI [8] greater than 100 µM, a GI50 [9] greater than 86.7 µM and a TGI [9] greater than 100 µM. The GI50 [10] was 61.4 µM, the TGI [10] was greater than 100 µM and the GI50 [11] was greater than 79.8 µM. It also gave a TGI [11] greater than 100 µM, a GI50 [12] greater than 88.5 µM and a TGI [12] greater than 100 µM. It also gave a GI50 [13] greater than 100 µM, a TGI [13] greater than 100 µM and a GI50 [14] of 18.2 µM. The TGI [14] was greater than 100 µM, the GI50 [15] was greater than 82.8 µM and the TGI [15] was greater than 100 µM. For the same molecule, the GI50 [16] was 54.2 µM, the TGI [16] was greater than 100 µM and the GI50 [17] was greater than 87.9 µM. The TGI [17] was greater than 100 µM, the GI50 [18] was greater than 100 µM and the TGI [18] was greater than 100 µM. It also gave a GI50 [19] greater than 100 µM, a TGI [19] greater than 100 µM and a GI50 [20] greater than 93.7 µM. The TGI [20] was greater than 100 µM, the GI50 [21] was 39.5 µM and the TGI [21] was 97.4 µM. The GI50 [22] was greater than 100 µM, the TGI [22] was greater than 100 µM and the GI50 [23] was 40.4 µM. For the same molecule, the TGI [23] was greater than 100 µM, the GI50 [24] was greater than 87.8 µM and the TGI [24] was greater than 100 µM. For the same molecule, the GI50 [25] was greater than 87.8 µM, the TGI [25] was greater than 100 µM and the GI50 [26] was greater than 87.7 µM. The TGI [26] was greater than 100 µM, the GI50 [27] was 32.9 µM and the TGI [27] was greater than 95.9 µM. For the same molecule, the GI50 [28] was greater than 100 µM, the TGI [28] was greater than 100 µM and the GI50 [29] was greater than 100 µM. It also gave a TGI [29] greater than 100 µM, a GI50 [30] greater than 84.7 µM and a TGI [30] greater than 100 µM. For the same molecule, the GI50 [31] was greater than 67.4 µM, the TGI [31] was greater than 100 µM and the GI50 [32] was greater than 100 µM. It also gave a TGI [32] greater than 100 µM, a GI50 [33] greater than 100 µM and a TGI [33] greater than 100 µM. It also gave a GI50 [34] greater than 59.6 µM, a TGI [34] greater than 100 µM and a GI50 [35] of 24.4 µM. It also gave a TGI [35] greater than 61.4 µM, a GI50 [36] greater than 89.3 µM and a TGI [36] greater than 100 µM. It also gave a GI50 [37] greater than 49.4 µM, a TGI [37] greater than 93.7 µM and a GI50 [38] greater than 100 µM. The TGI [38] was greater than 100 µM, the GI50 [39] was 73.8 µM and the TGI [39] was greater than 100 µM. The GI50 [40] was greater than 100 µM, the TGI [40] was greater than 100 µM and the GI50 [41] was 47.7 µM. It also gave a TGI [41] greater than 100 µM, a GI50 [42] greater than 100 µM and a TGI [42] greater than 100 µM. The GI50 [43] was greater than 80.7 µM, the TGI [43] was greater than 100 µM and the GI50 [44] was greater than 60 µM. For the same molecule, the TGI [44] was greater than 100 µM, the GI50 [45] was greater than 100 µM and the TGI [45] was greater than 100 µM. For the same molecule, the GI50 [46] was greater than 100 µM, the TGI [46] was greater than 100 µM and the GI50 [47] was 23.4 µM. For the same molecule, the TGI [47] was 65.2 µM, the GI50 [48] was greater than 100 µM and the TGI [48] was greater than 100 µM. The GI50 [49] was greater than 61.8 µM, the TGI [49] was greater than 100 µM and the GI50 [50] was 61.2 µM. It also gave a TGI [50] greater than 100 µM, a GI50 [51] of 92.4 µM and a TGI [51] greater than 100 µM. For the same molecule, the GI50 [52] was 74.7 µM, the TGI [52] was greater than 100 µM and the GI50 [53] was greater than 100 µM. It also gave a TGI [53] greater than 100 µM, a GI50 [54] greater than 46.8 µM and a TGI [54] greater than 86.7 µM. For the same molecule, the GI50 [55] was greater than 100 µM, the TGI [55] was greater than 100 µM and the GI50 [56] was greater than 75.2 µM. The TGI [56] was greater than 100 µM, the GI50 [57] was greater than 85.1 µM and the TGI [57] was greater than 100 µM. The GI50 [58] was 69.3 µM and the TGI [58] was greater than 100 µM.

With `Cc1csc(-c2nnc(Nc3ccc(Oc4ncccc4-c4ccnc(N)n4)cc3)c3ccccc23)c1` the GI50 [1] was 0.0995 µM, the TGI [1] was 3.08 µM and the GI50 [2] was 5.92 µM. It also gave a TGI [2] greater than 100 µM, a GI50 [3] of 1.44 µM and a TGI [3] of 4.88 µM. It also gave a GI50 [4] of less than 0.01 µM, a TGI [4] of less than 0.01 µM and a GI50 [5] of 1.54 µM. The TGI [5] was greater than 100 µM, the GI50 [6] was 1.13 µM and the TGI [6] was greater than 100 µM. The GI50 [7] was 0.253 µM, the TGI [7] was greater than 100 µM and the GI50 [8] was 0.547 µM. The TGI [8] was 13.1 µM, the GI50 [9] was less than 0.01 µM and the TGI [9] was 0.0564 µM. It also gave a GI50 [10] of 2.34 µM, a TGI [10] greater than 100 µM and a GI50 [11] of 0.0121 µM. It also gave a TGI [11] of 4.59 µM, a GI50 [12] of 2.42 µM and a TGI [12] greater than 100 µM. It also gave a GI50 [13] of 1.81 µM, a TGI [13] greater than 100 µM and a GI50 [14] of 0.976 µM. It also gave a TGI [14] greater than 100 µM, a GI50 [15] of 1.51 µM and a TGI [15] of 9.78 µM. For the same molecule, the GI50 [16] was 0.0101 µM, the TGI [16] was 2.47 µM and the GI50 [17] was less than 0.01 µM. For the same molecule, the TGI [17] was greater than 100 µM, the GI50 [18] was 0.187 µM and the TGI [18] was greater than 100 µM. For the same molecule, the GI50 [19] was 2.91 µM, the TGI [19] was greater than 100 µM and the GI50 [20] was 0.918 µM. The TGI [20] was greater than 100 µM, the GI50 [59] was 0.552 µM and the TGI [59] was greater than 100 µM. For the same molecule, the GI50 [21] was 1.96 µM, the TGI [21] was 43.3 µM and the GI50 [22] was 1.34 µM. It also gave a TGI [22] greater than 100 µM, a GI50 [23] of 2.71 µM and a TGI [23] greater than 100 µM. It also gave a GI50 [24] of 0.586 µM, a TGI [24] greater than 100 µM and a GI50 [25] of 7.21 µM. For the same molecule, the TGI [25] was greater than 100 µM, the GI50 [26] was less than 0.01 µM and the TGI [26] was 1.11 µM. It also gave a GI50 [27] of less than 0.01 µM, a TGI [27] of less than 0.01 µM and a GI50 [28] of 1.69 µM. The TGI [28] was greater than 100 µM, the GI50 [29] was 4.92 µM and the TGI [29] was greater than 100 µM. It also gave a GI50 [30] of 0.878 µM, a TGI [30] greater than 100 µM and a GI50 [31] of 0.0536 µM. The TGI [31] was greater than 100 µM, the GI50 [32] was 0.166 µM and the TGI [32] was greater than 100 µM. For the same molecule, the GI50 [33] was 19.6 µM, the TGI [33] was greater than 100 µM and the GI50 [34] was 3.25 µM. The TGI [34] was greater than 100 µM, the GI50 [35] was 1.51 µM and the TGI [35] was 6.12 µM. It also gave a GI50 [36] of 1.48 µM, a TGI [36] of 43.2 µM and a GI50 [37] of 0.191 µM. It also gave a TGI [37] greater than 100 µM, a GI50 [38] of 3.82 µM and a TGI [38] greater than 100 µM. It also gave a GI50 [39] of 2.1 µM, a TGI [39] greater than 100 µM and a GI50 [40] of less than 0.01 µM. The TGI [40] was 1.29 µM, the GI50 [41] was 1.44 µM and the TGI [41] was 3.53 µM. It also gave a GI50 [42] of 0.181 µM, a TGI [42] of 3.13 µM and a GI50 [43] of 0.0517 µM. It also gave a TGI [43] greater than 100 µM, a GI50 [44] of less than 0.01 µM and a TGI [44] of 17.6 µM. It also gave a GI50 [45] of 4.05 µM, a TGI [45] greater than 100 µM and a GI50 [46] of 0.0894 µM. It also gave a TGI [46] greater than 100 µM, a GI50 [48] of 0.682 µM and a TGI [48] greater than 100 µM. It also gave a GI50 [49] of 0.202 µM, a TGI [49] of 5.22 µM and a GI50 [50] of 0.0331 µM. For the same molecule, the TGI [50] was greater than 100 µM, the GI50 [51] was 5.32 µM and the TGI [51] was greater than 100 µM. The GI50 [52] was less than 0.01 µM, the TGI [52] was less than 0.01 µM and the GI50 [53] was 0.141 µM. The TGI [53] was greater than 100 µM, the GI50 [54] was less than 0.01 µM and the TGI [54] was 5.03 µM. The GI50 [55] was 1.89 µM, the TGI [55] was greater than 100 µM and the GI50 [56] was 1.2 µM. It also gave a TGI [56] of 16.3 µM, a GI50 [57] of less than 0.01 µM and a TGI [57] of less than 0.01 µM. The GI50 [58] was 0.271 µM and the TGI [58] was 2.95 µM.
